Values of other authors, collected in patent US7348299B2, “Cleansing bar with distributed polymeric network providing enhanced delivery” (Conopco, Inc., priority 2005, dated 2008).

How the values were obtained:
[1] = single component of 1:1 model perfume; first/second component
[2] = single component of 1:1 model perfume; no unit in table, K in Atm

For `OCCc1ccccc1` [Phenylethylalcohol], the “φo/w (octanol/water partition coefficient)” value [1] is given as 22.9 and the “K (volatility constant)” value [2] is given as 0.1.

In the case of `CC(C=O)Cc1ccc(C(C)(C)C)cc1` (stereo not shown) [lilial], the “φo/w (octanol/water partition coefficient)” value [1] is given as 32,360 and the “K (volatility constant)” value [2] is given as 0.42.

For `C=CC(C)CCC=C(C)C` (stereo not shown) [citronellene], the “φo/w (octanol/water partition coefficient)” value [1] is given as 43,651 and the “K (volatility constant)” value [2] is given as 120.

For `Cc1ccc(C(C)C)cc1` [p-cymene], the “φo/w (octanol/water partition coefficient)” value [1] is given as 31,000 and the “K (volatility constant)” value [2] is given as 265.

For `CCC(C)(CCCC(C)C)OC(C)=O` (stereo not shown) [Tetrahydrolinalylacetate], the “φo/w (octanol/water partition coefficient)” value [1] is listed as 31,600 and the “K (volatility constant)” value [2] is listed as 5.5.

In the case of `C=C(C)[C@H]1CC=C(C)CC1` [Limonene], the “K (volatility constant)” value [2] is listed as 98.

In the case of `CC(=O)OCCC(C)CCC=C(C)C` (stereo not shown) [citronellyl acetate], the “φo/w (octanol/water partition coefficient)” value [1] is given as 19,054 and the “K (volatility constant)” value [2] is given as 6.

In the case of `CC(CC=O)CCCC(C)(C)O` (stereo not shown) [hydroxycitonellal], the “φo/w (octanol/water partition coefficient)” value [1] is given as 34.7 and the “K (volatility constant)” value [2] is given as 0.05.

For `CC(=O)OCc1ccccc1` [Benzyl acetate], the “φo/w (octanol/water partition coefficient)” value [1] is given as 81 and the “K (volatility constant)” value [2] is given as 0.32.

In the case of `CC=O` [acetaldehyde], the “φo/w (octanol/water partition coefficient)” value [1] is given as 167 and the “K (volatility constant)” value [2] is given as 0.008.

For `CC1=CCC2CC1C2(C)C` (stereo not drawn) [alpha-pinene], the “φo/w (octanol/water partition coefficient)” value [1] is listed as 29648 and the “K (volatility constant)” value [2] is listed as 280.

For Methyl ionone, the “K (volatility constant)” value [2] is listed as 5.2.
